Literature values as cited in patent publication US20110229584A1, “Compound for the control of herpes simplex virus using glycyrrhizic acid, lipoic acid, allantoin, and slippery elm” (priority 2010, published 2011).

Legend:
[1] = system: HSV
[2] = system: zoster; settings: incubated with the viruses for more than 30 minutes
[3] = system: Epstein-Barr; settings: incubated with the viruses for more than 30 minutes
[4] = system: HSV-2; settings: incubated with the viruses for more than 30 minutes
[5] = system: vaccinia
[6] = system: Herpes simplex (HSV)
[7] = system: Newcastle's Disease
[8] = system: vesicular viomantitis
[9] = system: severe acute respiratory syndrome (SARS)
[10] = system: HSV-1
[11] = system: human aortic endothelial cells
[12] = system: HSV-1; settings: applied topically to infected epidermal areas
[13] = system: HSV-1; remark: listed apart in the source

CCCCCCCCCCCCCCCCCCCCCCO [Docosanol, docosanol]
decrease of mean time of healing ([1]; both treatment phases, applied early in the stages of infection): more than 50% | healing time of first episodes with treatment (average) ([1]; first episodes): 5.4 days | reduction of healing times of first episodes (average) ([1]; first episodes, from 7.3 days): 1.9 days

CC1(C)[C@@H](O[C@H]2O[C@H](C(=O)O)[C@@H](O)[C@H](O)[C@H]2O[C@@H]2O[C@H](C(=O)O)[C@@H](O)[C@H](O)[C@H]2O)CC[C@]2(C)[C@H]3C(=O)C=C4[C@@H]5C[C@@](C)(C(=O)O)CC[C@]5(C)CC[C@@]4(C)[C@]3(C)CC[C@@H]12 [Glycyrrhizic acid]
inactivation of zoster [2]: more than 90% | inactivation of Epstein-Barr [3]: more than 90% | inactivation of HSV-2 [4]: more than 90% | growth and cytopathic effect of vaccinia [5]: inhibit | deactivation of HSV [6]: irreversibly deactiveate | growth and cytopathic effect of Herpes simplex (HSV) [6]: inhibit | growth and cytopathic effect of Newcastle's Disease [7]: inhibit | growth and cytopathic effect of vesicular viomantitis [8]: inhibit | inhibition of severe acute respiratory syndrome (SARS) [9]: inhibit | activity against in vivo HSV-1 ([10]; in vivo): strong activity | resistance of thermally injured mice to HSV-1 ([10]; thermally injured mice): improve

O=C(O)CCCCC1CCSS1 (stereo not drawn) [Lipoic acid, alpha-Lipoic acid]
LPS-caused expression of cellular adhesion molecules and adherence of monocytes to human aortic endothelial cells [11]: inhibit | LPS-triggered NF-B DNA binding activities [11]: inhibited

Cl.NCCCC[C@H](N)C(=O)O [Lysine monohydrochloride, L-Lysine Monohydrochloride]
inactivation of HSV-1 [12]: not to be able to inactivate

Nc1nc2c(ncn2CCC(CO)CO)c(=O)[nH]1 [Penciclovir]
decrease of pain duration ([13]; from 4.1 days): 0.6 days | healing time of the lesions with treatment ([13]; treated group): 4.8 days | pain duration with treatment ([13]; treated group): 3.5 days | lesion virus shedding ([13]; versus placebo): marginally changed | healing of the lesions faster versus placebo ([13]; versus placebo 5.5 days): 0.7 days

CC1(C)[C@@H](O)CC[C@]2(C)[C@H]3C(=O)C=C4[C@@H]5C[C@@](C)(C(=O)O)CC[C@]5(C)CC[C@@]4(C)[C@]3(C)CC[C@@H]12 [glycrrhetic acid]
inhibition of severe acute respiratory syndrome (SARS) [9]: inhibit
